Reference: patent US4379780A, “17 α-Dihydroequilin hapten and assay method” (American Home Products Corporation, priority 1980, dated 1983)

System: not listed separately
Test: Oxidation of 17α-dihydroequilin to 17α-dihydroequilenin during formic acid hydrolysis (HPLC)
Assay type: physicochemical
Conditions: 0.1% (w/v) ascorbic acid added before hydrolysis; 120 min
Protocol: Plasma (0.2 ml) and distilled water (0.7 ml) were added to a 16×125 mm tube and mixed. [6,7-^3 H]-Estrone-3-sulfate (0.1 ml, 2000 cpm, obtained from New England Nuclear Corp.), and [2,4-^3 H]-17α-dihydroequilin (0.1 ml, 2000 cpm) was then added to correct for recovery through the assay procedure, and the sample again mixed well and allowed to stand at room temperature for 30 min. Diethyl ether (2 ml) was added for extraction of the free compound. The extraction was repeated three times and the combined extracts washed with distilled water (1 ml) and the solvent removed by evaporation. The aqueous phase containing the conjugates was re-extracted with 2 ml of ethyl acetate-ethanol (4:1, v/v). The extraction was repeated two more times and the combined extracts were dried in a centrifuge tube (12 ml) under a stream of nitrogen. Absolute ethanol was added to those tubes which contained residual water and once again dried under nitrogen. The conjugate fraction was hydrolyzed with formic acid. […] The tube was tightly closed, vortexed, and sonified for 10 min before being placed in a 37° C. water bath for 2 hr. The hydrolyzed sample was taken to dryness, sodium phosphate buffer (1 ml) was added, and the solution was vortexed and allowed to stand at 20° C. for 10 min. The hydrolyzed free compound was extracted with diethyl ether (2 ml) three times and taken to dryness. […]

Structure (SMILES) | 17α-dihydroequilin oxidized to 17α-dihydroequilenin during hydrolysis with formic acid
C[C@]12CC[C@H]3C(=CCc4cc(O)ccc43)[C@@H]1CC[C@H]2O [17α-Dihydroequilin, 1,3,5(10),7-estratetraene-3,17α-diol] | 2-3%

Same assay, conditions: without ascorbic acid; 120 min

Structure (SMILES) | 17α-dihydroequilin oxidized to 17α-dihydroequilenin during hydrolysis with formic acid
C[C@]12CC[C@H]3C(=CCc4cc(O)ccc43)[C@@H]1CC[C@H]2O [17α-Dihydroequilin, 1,3,5(10),7-estratetraene-3,17α-diol] | 13-16%

System: anti-17α-dihydroequilin serum
Test: Cross-reactivity of steroids with the anti-17α-dihydroequilin serum (radioimmunoassay)
Assay type: binding
Conditions: selected rabbit anti-17α-dihydroequilin serum; [2,4-3H]-17α-dihydroequilin tracer
Protocol: For the assay procedure, a standard was prepared from a stock solution of unlabeled steroid in absolute ethanol (100 ng/ml). A working standard solution containing 1 ng/ml of unlabeled steroid was prepared in sodium phosphate buffer (0.1 M, pH 7, 0.9% NaCl). The labeled [2,4-^3 H]-17α-dihydroequilin solution was prepared in the assay buffer at a concentration of 100 pg/ml. The antiserum was prepared in BSA-assay buffer (1 g BSA/1000 ml sodium phosphate buffer) at a concentraton of one-fifth of the final working dilutions.
The standard curve was established by preparing duplicate 3 ml centrifuge tubes containing 0, 50, 100, 250, 500, 1000, and 2000 pg of the steroid in a total volume of 0.5 ml assay buffer. The sample tubes were prepared in duplicate with hydrolyzed plasma extract (0.1 ml) and assay buffer (0.4 ml) in a total volume of 0.5 ml. To all standard and sample tubes antibody (0.25 ml) and labeled steroid (0.5 ml) were added. These were mixed and allowed to incubate at 4° C. for 18 hr. After addition of 0.2 ml gamma globulin dextran-coated charcoal (4 g charcoal, 0.4 g dextran, 0.8 g human gamma globulin, 200 ml deionized water), each tube was again mixed and placed in a cold room (4° C.) for 20 min. After centrifugation at 2,500 rev./min for 6 min, 0.5 ml of each supernatant was aliquoted into a counting vial. Then 15 ml of a scintillation medium [(4 g of 2,5-diphenyloxazole (PPO), 50 mg of 1,4-di-2-(5-phenyloxazoyl)benzene (dimethyl-POPOP), 100 ml of the aqueous solubilizer Biosolv BBS-3 (Biosolv is a trademark of Beachman Instruments, Irvine, Calif., U.S.A.) and 1000 ml toluene] was added to each vial. The samples were counted to a relative standard error of less than 2% in a Packard model 3320 liquid scintillation counter, Packard Instrument Co., Downers Grove, Ill., U.S.A., see C. Matthijssen and J. W. Goldzieher, Analyt. Biochem., 10, 401 (1965).
The titer was determined from the ability of antibody to bind a constant amount (50 pg) of the labeled steroid.

Structure (SMILES) | 17α-Dihydroequilin Antibody (Percent Cross-Reactivity)
C[C@]12CC[C@H]3C(=CCc4cc(O)ccc43)[C@@H]1CCC2=O [Equilin] | 0.7%
C[C@]12CC[C@H]3C(=CCc4cc(OS(=O)(=O)O)ccc43)[C@@H]1CC[C@H]2O [17α-Dihydroequilin 3-sulfate] | 9.04%
C[C@]12CC[C@@H]3c4ccc(O)cc4CC[C@H]3[C@@H]1CC[C@@H]2O [Estradiol-17β] | < 0.10%
C[C@]12CCC3=C(CCc4cc(O)ccc43)[C@@H]1CCC2=O [8-Dehydroestrone] | < 0.10%
C[C@]12CC[C@@H]3c4ccc(O)cc4C[C@@H](O)[C@]3(O)[C@@H]1CCC2=O [Equilin-7α,8α-glycol] | < 0.10%
C[C@]12CCC(=O)C=C1CC[C@@H]1[C@@H]2CC[C@]2(C)C(=O)CC[C@@H]12 [4-Androstene-3,17-dione] | < 0.10%
C[C@]12CC[C@H]3C(=CCc4cc(O)ccc43)[C@@H]1CC[C@H]2O [17α-Dihydroequilin, 1,3,5(10),7-estratetraene-3,17α-diol] | 100.0%
C[C@]12CCc3c(ccc4cc(O)ccc34)[C@@H]1CCC2=O [Equilenin] | 0.40%
C[C@]12CCC(=O)C=C1CC[C@@H]1[C@@H]2[C@@H](O)C[C@@]2(C)[C@H]1CC[C@]2(O)C(=O)CO [Cortisol] | < 0.10%
C[C@]12CCc3c(ccc4cc(O)ccc34)[C@@H]1CC[C@@H]2O [17β-Dihydroequilenin] | < 0.10%
C[C@]12CC[C@H](O)CC1=CC[C@@H]1[C@@H]2CC[C@]2(C)C(=O)CC[C@@H]12 [Dehydroepiandrosterone] | < 0.10%
C[C@]12CC[C@H]3C(=CCc4cc(O)ccc43)[C@@H]1CC[C@@H]2O [17β-Dihydroequilin] | < 0.10%
C[C@]12CC[C@@H](O)C[C@@H]1CC[C@@H]1[C@@H]2CC[C@]2(C)C(=O)CC[C@@H]12 [Androsterone] | < 0.10%
C[C@]12CC[C@@H]3c4ccc(O)cc4C=C[C@H]3[C@@H]1CCC2=O [6-Dehydroestrone] | < 0.10%
C[C@]12CCc3c(ccc4cc(O)ccc34)[C@@H]1CC[C@H]2O [17α-Dihydroequilenin] | < 0.10%
CC(=O)[C@H]1CC[C@H]2[C@@H]3CCC4=CC(=O)CC[C@]4(C)[C@H]3CC[C@]12C [Progesterone] | < 0.10%
C[C@]12CC[C@@H]3c4ccc(O)cc4CC[C@H]3[C@@H]1CCC2=O [Estrone] | < 0.10%
C[C@]12CC[C@@H]3c4ccc(OS(=O)(=O)O)cc4CC[C@H]3[C@@H]1CC[C@H]2O [17α-Estradiol 3-sulfate] | < 0.10%
C[C@]12CC[C@H]3[C@@H](CCC4=CC(=O)CC[C@@]43C)[C@@H]1CC[C@@H]2O [Testosterone] | < 0.10%
C[C@]12CC[C@@H]3c4ccc(O)cc4CC[C@H]3[C@@H]1CC[C@H]2O [Estradiol-17α] | < 0.10%
